Assay results published in PubChem BioAssay AID330 (DTP/NCI, 2004).
Several values for one entry are separate records, joined by “and”; a condition that tells them apart may be missing. Equal values may be shown once. Inconclusive results and toxic doses are left out. Bridge positions count the residues as written; N and C are the ends. Peptide text beside a SMILES is read from it. I, II: the chains in the order shown.

Test system: P388 leukemia ip, CD2F1 mice, survival T/C
Assay: NCI In Vivo Anticancer Drug Screen. Data for tumor model P388 Leukemia (intraperitoneal) in CD2F1 (CDF1) mice
Conditions: endpoint: median survival time, higher = longer survival
How it was run: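 Mice carrying the transplanted tumor received test compound or vehicle. Survival was recorded in each group, and the value is the treated-group measurement divided by that of the vehicle-treated control group.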

[1] = dose: 100.0 mg/kg/injection, schedule: Q04DX002 (ip), vehicle: saline with Tween-80
[2] = dose: 50.0 mg/kg/injection, schedule: Q01DX005 (ip), vehicle: saline with Tween-80
[3] = dose: 100.0 mg/kg/injection, schedule: Q01DX005 (ip), vehicle: saline with Tween-80
[4] = dose: 200.0 mg/kg/injection, schedule: Q01DX005 (ip), vehicle: saline with Tween-80
[5] = dose: 50.0 mg/kg/injection, schedule: Q01DX009 (ip), vehicle: saline with Tween-80
[6] = dose: 100.0 mg/kg/injection, schedule: Q01DX009 (ip), vehicle: saline with Tween-80
[7] = dose: 200.0 mg/kg/injection, schedule: Q01DX009 (ip), vehicle: saline with Tween-80
[8] = dose: 100.0 mg/kg/injection, schedule: Q01DX001 (ip), vehicle: saline with Tween-80
[9] = dose: 200.0 mg/kg/injection, schedule: Q01DX001 (ip), vehicle: saline with Tween-80
[10] = dose: 400.0 mg/kg/injection, schedule: Q01DX001 (ip), vehicle: saline with Tween-80
[11] = dose: 50.0 mg/kg/injection, schedule: Q01DX005 (ip), vehicle: Klucel (hydroxypropylcellulose) (HPC)
[12] = dose: 60.0 mg/kg/injection, schedule: Q01DX005 (ip), vehicle: saline with Tween-80
[13] = dose: 120.0 mg/kg/injection, schedule: Q01DX005 (ip), vehicle: saline with Tween-80
[14] = dose: 25.0 mg/kg/injection, schedule: Q01DX009 (ip), vehicle: saline with Tween-80

Structure (SMILES): O=C(CCC1(CCC(=O)c2ccccc2)c2ccccc2C(=O)c2ccccc21)c1ccccc1
- T/C (dose: 25.0 mg/kg/injection, schedule: Q04DX003 (ip), vehicle: Klucel (hydroxypropylcellulose) (HPC)): 93 % of control
- T/C (dose: 50.0 mg/kg/injection, schedule: Q04DX003 (ip), vehicle: Klucel (hydroxypropylcellulose) (HPC)): 108 % of control
- T/C (dose: 100.0 mg/kg/injection, schedule: Q04DX003 (ip), vehicle: Klucel (hydroxypropylcellulose) (HPC)): 86 % of control
- T/C (dose: 200.0 mg/kg/injection, schedule: Q04DX003 (ip), vehicle: Klucel (hydroxypropylcellulose) (HPC)): 91 % of control

Structure (SMILES): CC(C)(C)C1CCC(=NSC(c2ccccc2)(c2ccccc2)c2ccccc2)CC1 (stereo not drawn)
- T/C [1]: 95 % of control
- T/C (dose: 200.0 mg/kg/injection, schedule: Q04DX002 (ip), vehicle: saline with Tween-80): 87 % of control
- T/C (dose: 400.0 mg/kg/injection, schedule: Q04DX002 (ip), vehicle: saline with Tween-80): 89 % of control

Structure (SMILES): COc1ccccc1/C=N/N1C(=O)C2C3C=CC(O3)C2C1=O (stereo not drawn)
- T/C [2]: 104 % of control
- T/C [3]: 89 % of control
- T/C [4]: 93 % of control

Structure (SMILES): O=C(CNNC(=O)OCc1ccccc1)OCc1ccccc1
- T/C (dose: 12.5 mg/kg/injection, schedule: Q01DX009 (ip), vehicle: other): 95 % of control
- T/C (dose: 25.0 mg/kg/injection, schedule: Q01DX009 (ip), vehicle: other): 99 % of control
- T/C (dose: 50.0 mg/kg/injection, schedule: Q01DX009 (ip), vehicle: other): 93 % of control
- T/C (dose: 100.0 mg/kg/injection, schedule: Q01DX009 (ip), vehicle: other): 96 % of control

Structure (SMILES): NCc1nnn(Cc2ccccc2)c1N
- T/C [5]: 90 % of control
- T/C [6]: 92 % of control
- T/C [7]: 92 % of control

Structure (SMILES): NC(CSSCC(N)C(=O)NC(Cc1ccc(O)cc1)C(=O)O)C(=O)NC(Cc1ccc(O)cc1)C(=O)O (stereo not drawn) (I: H-Cys-Tyr-OH / II: H-Cys-Tyr-OH; disulfide I:1-II:1; configuration not given here)
- T/C (dose: 50.0 mg/kg/injection, schedule: Q01DX005 (ip), vehicle: saline): 110 % of control
- T/C (dose: 100.0 mg/kg/injection, schedule: Q01DX005 (ip), vehicle: saline): 111 % of control
- T/C (dose: 200.0 mg/kg/injection, schedule: Q01DX005 (ip), vehicle: saline): 103 % of control

Structure (SMILES): COC1=C(OC)C(=O)C(CC=C(C)C)=C(C)C1=O
- T/C (dose: 12.5 mg/kg/injection, schedule: Q01DX009 (ip), vehicle: saline + alcohol): 118 % of control
- T/C (dose: 25.0 mg/kg/injection, schedule: Q01DX009 (ip), vehicle: saline + alcohol): 104 % of control and 110 % of control
- T/C (dose: 50.0 mg/kg/injection, schedule: Q01DX009 (ip), vehicle: saline + alcohol): 103 % of control and 105 % of control
- T/C (dose: 100.0 mg/kg/injection, schedule: Q01DX009 (ip), vehicle: saline + alcohol): 151 % of control

Structure (SMILES): C=C1CC2(CC(C)CCC2C(C)C)OC1=O (stereo not drawn)
- T/C (dose: 100.0 mg/kg/injection, schedule: Q01DX001 (ip), vehicle: saline): 97 % of control
- T/C (dose: 200.0 mg/kg/injection, schedule: Q01DX001 (ip), vehicle: saline): 100 % of control
- T/C (dose: 400.0 mg/kg/injection, schedule: Q01DX001 (ip), vehicle: saline): 111 % of control

Structure (SMILES): CCC1(O)C(=O)OCc2c1cc1n(c2=O)Cc2ccccc2-1 (stereo not drawn)
- T/C [8]: 96 % of control
- T/C [9]: 90 % of control
- T/C [10]: 92 % of control

Structure (SMILES): Cc1cc[n+](C)c(Cc2ccccc2)c1C
- T/C (dose: 12.5 mg/kg/injection, schedule: Q01DX005 (ip), vehicle: Klucel (hydroxypropylcellulose) (HPC)): 97 % of control
- T/C (dose: 25.0 mg/kg/injection, schedule: Q01DX005 (ip), vehicle: Klucel (hydroxypropylcellulose) (HPC)): 100 % of control
- T/C [11]: 112 % of control

Structure (SMILES): COC(=O)c1nc(N)nc(C(=O)OC)c1C(=O)c1ccc([N+](=O)[O-])cc1
- T/C [12]: 105 % of control
- T/C [13]: 97 % of control

Structure (SMILES): Clc1ccc(C2=NON(c3ccccn3)C3C=CC=CN23)cc1 (stereo not drawn)
- T/C [2]: 97 % of control
- T/C [3]: 93 % of control
- T/C [4]: 93 % of control

Structure (SMILES): O=NN(CCCl)C(=O)N(CCCl)C(=O)Oc1c(Cl)cc(Cl)cc1Cl
- T/C (dose: 25.0 mg/kg/injection, schedule: Q01DX001 (ip), vehicle: saline with Tween-80): 122 % of control
- T/C [8]: 150 % of control
- T/C [9]: 179 % of control and 193 % of control
- T/C [10]: 199 % of control

Structure (SMILES): CCOC(=O)C[CH2][Sn]([Cl])([Cl])[Cl]
- T/C (dose: 100.0 mg/kg/injection, schedule: Q04DX003 (ip), vehicle: saline): 100 % of control
- T/C (dose: 200.0 mg/kg/injection, schedule: Q04DX003 (ip), vehicle: saline): 103 % of control

Structure (SMILES): COc1cc(OC)c(NC(=O)Nc2cc(Cl)ccc2Cl)cc1Cl
- T/C [5]: 94 % of control
- T/C [6]: 91 % of control

Structure (SMILES): FC(F)(F)C(Cl)(c1ccc(Cl)cc1)c1ccc(Cl)cc1
- T/C (dose: 50.0 mg/kg/injection, schedule: Q01DX005 (sc), vehicle: olive oil, sesame oil, peanut oil): 96 % of control
- T/C (dose: 100.0 mg/kg/injection, schedule: Q01DX005 (sc), vehicle: olive oil, sesame oil, peanut oil): 96 % of control
- T/C (dose: 200.0 mg/kg/injection, schedule: Q01DX005 (sc), vehicle: olive oil, sesame oil, peanut oil): 95 % of control
- T/C (dose: 400.0 mg/kg/injection, schedule: Q01DX005 (sc), vehicle: olive oil, sesame oil, peanut oil): 100 % of control

Structure (SMILES): COC(=O)C(C)c1cc2ccccc2[nH]1 (stereo not drawn)
- T/C [14]: 100 % of control
- T/C [5]: 99 % of control
- T/C [6]: 113 % of control

Structure (SMILES): O=c1cc2n(c(=O)n1Cc1ccccc1)CCC2
- T/C (dose: 12.5 mg/kg/injection, schedule: Q01DX005 (ip), vehicle: saline with Tween-80): 97 % of control
- T/C (dose: 25.0 mg/kg/injection, schedule: Q01DX005 (ip), vehicle: saline with Tween-80): 99 % of control
- T/C [2]: 101 % of control

Structure (SMILES): CCCC(N)C(=O)NC(Cc1c[nH]c2ccccc12)C(=O)O (stereo not drawn)
- T/C [2]: 101 % of control
- T/C [3]: 102 % of control
- T/C [4]: 103 % of control

Structure (SMILES): CCO/C=N/n1c(C(=O)NCCCOC)nc2ccccc2c1=O
- T/C [11]: 107 % of control
- T/C (dose: 100.0 mg/kg/injection, schedule: Q01DX005 (ip), vehicle: Klucel (hydroxypropylcellulose) (HPC)): 94 % of control
- T/C (dose: 200.0 mg/kg/injection, schedule: Q01DX005 (ip), vehicle: Klucel (hydroxypropylcellulose) (HPC)): 100 % of control

Structure (SMILES): COc1ccc(-c2cc(-c3ccccc3)c(-c3ccccc3)nn2)cc1CN1CCOCC1
- T/C [5]: 99 % of control
- T/C [6]: 100 % of control
- T/C [7]: 95 % of control

Structure (SMILES): O=C(Nc1cc(Cl)cc(Cl)c1)N1CCOCC1
- T/C [12]: 92 % of control
- T/C [13]: 92 % of control
- T/C (dose: 240.0 mg/kg/injection, schedule: Q01DX005 (ip), vehicle: saline with Tween-80): 92 % of control

Structure (SMILES): CCOC(=S)c1cccc(C(=S)OCC)c1
- T/C [5]: 104 % of control
- T/C [6]: 100 % of control
- T/C [7]: 103 % of control

Structure (SMILES): Nc1nc(-c2ccc(Cl)cc2)cc(-c2cc(-c3ccc(Cl)cc3)nc(N)n2)n1
- T/C (dose: 60.0 mg/kg/injection, schedule: Q01DX005 (ip), vehicle: saline): 110 % of control
- T/C (dose: 120.0 mg/kg/injection, schedule: Q01DX005 (ip), vehicle: saline): 102 % of control
- T/C (dose: 240.0 mg/kg/injection, schedule: Q01DX005 (ip), vehicle: saline): 100 % of control

Structure (SMILES): Nc1ccc2c(c1)C(=O)CCC2
- T/C [5]: 103 % of control
- T/C [6]: 99 % of control
- T/C [7]: 100 % of control

Structure (SMILES): O=C(CS(=O)(=O)O)c1ccccc1
- T/C (dose: 25.0 mg/kg/injection, schedule: Q04DX002 (ip), vehicle: saline with Tween-80): 100 % of control
- T/C (dose: 50.0 mg/kg/injection, schedule: Q04DX002 (ip), vehicle: saline with Tween-80): 106 % of control
- T/C [1]: 94 % of control and 97 % of control

Structure (SMILES): CN1C(C)(C)CC(C(=O)c2ccccc2)(c2ccccc2)CC1(C)C
- T/C (dose: 50.0 mg/kg/injection, schedule: Q01DX005 (ip), vehicle: saline + Tween-80 + alcohol): 107 % of control
- T/C (dose: 100.0 mg/kg/injection, schedule: Q01DX005 (ip), vehicle: saline + Tween-80 + alcohol): 100 % of control

Structure (SMILES): CCOC(=O)Nc1cc(NC(C)/C(=N/O)c2ccccc2)c([N+](=O)[O-])c(N)n1 (stereo not drawn)
- T/C (dose: 60.0 mg/kg/injection, schedule: Q01DX005 (ip), vehicle: Klucel (hydroxypropylcellulose) (HPC)): 157 % of control and 176 % of control
- T/C (dose: 120.0 mg/kg/injection, schedule: Q01DX005 (ip), vehicle: Klucel (hydroxypropylcellulose) (HPC)): 166 % of control and 186 % of control
- T/C (dose: 240.0 mg/kg/injection, schedule: Q01DX005 (ip), vehicle: Klucel (hydroxypropylcellulose) (HPC)): 174 % of control and 180 % of control

Structure (SMILES): COC12c3c(C)cc(O)c4c(=O)occ(c34)C(=O)C1C13COC(=O)c4c(O)cc(C)c(c41)C(=O)C2C3OC(C)=O (stereo not drawn)
- T/C [14]: 107 % of control and 119 % of control
- T/C [5]: 111 % of control and 122 % of control
- T/C [6]: 103 % of control and 120 % of control and 123 % of control
